Read-outs that look alike come from different tables or passages of the source.
How the values were obtained:
Test in all cases: in vitro DNA strand exchange assay with recombinant hRAD51
Assay type in all cases: biochemical
hRAD51 [1] = target: T1, hRAD51 (Homo sapiens, UniProt Q06609)
T1 sequence (Q06609 2-339): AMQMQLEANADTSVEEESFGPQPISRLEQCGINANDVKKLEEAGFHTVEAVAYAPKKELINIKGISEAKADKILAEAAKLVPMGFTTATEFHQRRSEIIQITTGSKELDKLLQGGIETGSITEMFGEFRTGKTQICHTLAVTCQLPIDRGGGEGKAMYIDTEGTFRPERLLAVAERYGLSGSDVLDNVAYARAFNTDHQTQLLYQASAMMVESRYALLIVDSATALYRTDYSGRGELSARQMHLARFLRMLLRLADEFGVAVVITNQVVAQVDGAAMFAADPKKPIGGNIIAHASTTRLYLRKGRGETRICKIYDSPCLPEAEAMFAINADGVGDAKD

hRAD51 [2] = target: T1, hRAD51; remark: listed apart in the source
hRAD51 [3] = target: T1, hRAD51; remark: listed apart in the source

Row | SMILES | IC50 (hRAD51 [1]) | other results
1 | O=S(=O)(O)c1cc(N=C=S)ccc1/C=C/c1ccc(N=C=S)cc1S(=O)(=O)O [DIDS] | 90 ± 2.5 µM | 
2 | COc1cc(/C=C/c2ccc(O)cc2)cc(OC)c1 [P-ter, E-pterostilbene] |  | EC50 (hRAD51 [2]): 19.2 ± 2.4 µM
3 | O=C1C(Cl)=C(N2CCOCC2)C(=O)N1c1ccc(Cl)c(Cl)c1 [RI-1] | 50 ± 5 µM | 
4 | O=C(Nc1ccc(Br)cc1)c1ccc(Br)c(S(=O)(=O)NCc2ccccc2)c1 [RS-1] |  | EC50 (hRAD51 [3]): 25 ± 3 µM

From article PMC4889029 (Chemistry & biology, 2015)
